Common to all, as to type: cell-based
Assay [1] has as its system sonic hedgehog pathway. The assay is described as follows: Hedgehog pathway Gli-luciferase reporter assay, TM3 cells. To be noted: TM3 mouse Leydig cells. In a few lines: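 Agonist mode: cells carrying a luciferase gene downstream of the gli promoter received compound at 1–5 μM in 0.5% FBS for 24 h, optionally sensitised with 1–5 ng/ml octyl-modified hedgehog protein; luminescence gave % activation and EC50.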

Assay [2] deals with sonic hedgehog pathway. The assay is described as follows: Human hedgehog reporter assay HEPM-GliLuc (HGL). As to conditions: HepM human embryonic palatal mesenchymal cells, Gli-luciferase reporter. The text has this: Mouse (TM3: mouse Leydig cells; S12: mouse embryonic mesenchymal cells) and human (Daoy: human medulloblastoma cell; HepM: human embryonic palatal mesenchymal cell) cell lines are used to screen small molecules for their ability to modulate the activity of the sonic hedgehog pathway (Table 1, Table 2, and Table 3). Stable hedgehog pathway reporter cell lines are established by specific antibiotic selection following transfection of a reporter plasmid containing a luciferase gene located directly downstream from the gli promoter. Consequently, any observable changes in cellular luciferase activity may be attributed to changes in sonic hedgehog pathway activity in mouse and human cells, respectively, since gli is the major by-product of this pathway. To calculate activity, we generate an eleven point dose curve for each compound using 1:3 dilutions in 96 well assay plates. Each plate tested also contains low and high control to establish maximal pathway activation so to establish/compare a percentage activation of each tested compound (AMAX) on respective plates. Also we calculate EC50 values, or a concentration where the pathway will be exactly 50% activated, for each tested compound to determine potency. In these cell lines, compounds that register >20% AMAX values are considered active.
Stable hedgehog pathway reporter cell lines are established following specific antibiotic selection following transfection of a reporter plasmid In short, typically cells are plated in MicroTiter-plates at 10,000-20,000 cells per well, in growth media (containing 10%-20% FBS). After 48-72 hrs (HGL and DGL respectively) the media in the assay plates is switched to low-serum containing media (0.5% FBS). At that time compounds are added (at 1-5 μM) to the assay plates, in the presence or absence of hedgehog protein (octyl-modified version; 1-5 ng/ml). After another 24 hrs of incubation, the media from the assay plates is discarded and replaced with luciferase assay-mix. Subsequently, plates are incubated at RT for ˜15-30 mins and then read in a luminometer. [note: addition of the Hedgehog protein, although not critical, will sensitize the assay allowing the identification of weak actives].
A general note: Reporter assays use an easily measured gene product as a stand-in for the process of interest.

Assay [3] relates to sonic hedgehog pathway. The assay is described as follows: Human hedgehog reporter assay Daoy-GliLuc (DGL). To be noted: Daoy human medulloblastoma cells, Gli-luciferase reporter; read-out: Daoy Avg. EC50. The method in brief: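 Stable Gli-promoter luciferase reporter lines (human HepM, Daoy; mouse S12) plated at 10,000–20,000 cells/well, switched to 0.5% FBS after 48–72 h, then given compound (1–5 μM; 11-point 1:3 dose curves) with or without octyl-modified hedgehog protein (1–5 ng/ml) for 24 h. Luminescence read; AMAX vs plate controls and EC50 derived.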

Counter-ions that a name gives are not always drawn.

For the compound `CN[C@H]1CC[C@@H](N(Cc2cc(-c3cccc(C#N)c3)ccc2OC)C(=O)c2sc3ccccc3c2Cl)CC1` [Compound 304, 3-Chloro-benzo[b]thiophene-2-carboxylic acid (3′-cyano-4-methoxy-biphenyl-3-ylmethyl)-(4-methylamino-cyclohexyl)-amide hydrochloride], the EC50 in assay [1], in assay [2] and in assay [3] was under 50 nM in each case.

`CN[C@H]1CC[C@H](N(Cc2cc(-c3ccc(C(C)=O)cc3)ccc2F)C(=O)c2sc3ccccc3c2Cl)CC1` [Compound 419, 3-Chloro-benzo[b]thiophene-2-carboxylic acid (4′-acetyl-4-fluoro-biphenyl-3-ylmethyl)-(4-methylamino-cyclohexyl)-amide trifluoroacetate]: the EC50 (commonly the concentration that produces a half-maximal response) was under 50 nM in assay [1], 250 to 1000 nM in assay [2] and 50 to 250 nM in assay [3].

As for `CN[C@H]1CC[C@@H](N(Cc2cc(-c3ccc(OC)cc3)ccc2OC)C(=O)c2sc3ccccc3c2Cl)CC1` [Compound 305, 3-Chloro-benzo[b]thiophene-2-carboxylic acid (4,4′-dimethoxy-biphenyl-3-ylmethyl)-(4-methylamino-cyclohexyl)-amide hydrochloride], the results for the EC50 in assay [1], in assay [2] and in assay [3] were under 50 nM, 250 to 1000 nM and under 50 nM, respectively.

As to `CN[C@H]1CC[C@@H](N(Cc2cc(-c3ccc(C#N)cc3)ccc2OC)C(=O)c2sc3ccccc3c2Cl)CC1` [Compound 301, 3-Chloro-benzo[b]thiophene-2-carboxylic acid (4′-cyano-4-methoxy-biphenyl-3-ylmethyl)-(4-methylamino-cyclohexyl)-amide hydrochloride], the concentration for a half-maximal effect (EC50) in assay [1] is under 50 nM; in assay [2] it was 50 to 250 nM; in assay [3], under 50 nM.

On to `CCOc1ccc(-c2cccc(C#N)c2)cc1CN(C(=O)c1sc2ccccc2c1Cl)[C@H]1CC[C@@H](NC)CC1` [Compound 328, 3-Chloro-benzo[b]thiophene-2-carboxylic acid (3′-cyano-4-ethoxy-biphenyl-3-ylmethyl)-(4-methylamino-cyclohexyl)-amide hydrochloride], for which the concentration for a half-maximal effect (EC50) in assay [1] was under 50 nM; in assay [2], 50 to 250 nM; in assay [3], under 50 nM.

On to `CNC(=O)c1cc(-c2ccc(OC)c(CN(C(=O)c3sc4c(F)ccc(F)c4c3Cl)[C@H]3CC[C@H](NC)CC3)c2)ccn1` [356 (R21), 4-(3-{[(3-Chloro-4,7-difluoro-benzo[b]thiophene-2-carbonyl)-(4-methylamino-cyclohexyl)-amino]-methyl}-4-methoxy-phenyl)-pyridine-2-carboxylic acid methylamide dihydrochloride], for which the EC50 in assay [1], in assay [2] and in assay [3] was under 50 nM throughout.

As to `CN[C@H]1CC[C@@H](N(Cc2cc(-c3cnccn3)ccc2OC)C(=O)c2sc3c(F)ccc(F)c3c2Cl)CC1` [344 (R14)], the EC50 in assay [1], in assay [2] and in assay [3] was under 50 nM in each case.

For the compound `CN[C@H]1CC[C@@H](N(Cc2cc(-c3ccc(N(C)C(C)=O)cc3)ccc2OC)C(=O)c2sc3ccccc3c2Cl)CC1` [Compound 318, 3-Chloro-benzo[b]thiophene-2-carboxylic acid [4′-(acetyl-methyl-amino)-4-methoxy-biphenyl-3-ylmethyl]-(4-methylamino-cyclohexyl)-amide hydrochloride], the EC50 in assay [1], in assay [2] and in assay [3] was under 50 nM in each case.

Consider `CN[C@H]1CC[C@@H](N(Cc2cc(-c3ccc(CCl)cc3)ccc2OC)C(=O)c2sc3ccccc3c2Cl)CC1` [Compound 340, 3-Chloro-benzo[b]thiophene-2-carboxylic acid (4′-chloromethyl-4-methoxy-biphenyl-3-ylmethyl)-(4-methylamino-cyclohexyl)-amide hydrochloride], for which the EC50 in assay [1], in assay [2] and in assay [3] was under 50 nM in each case.

Take `CN[C@H]1CC[C@@H](N(Cc2cc(-c3ccc(C(=O)C(F)(F)F)cc3)ccc2OC)C(=O)c2sc3c(F)ccc(F)c3c2Cl)CC1` [Compound 349, 3-Chloro-4,7-difluoro-benzo[b]thiophene-2-carboxylic acid [4-methoxy-4′-(2,2,2-trifluoro-acetyl)-biphenyl-3-ylmethyl]-(4-methylamino-cyclohexyl)-amide trifluoroacetate]: the 50% effective concentration (EC50) in assay [1], in assay [2] and in assay [3] was under 50 nM throughout.

In the case of `CCOc1ccc(-c2ccc(C(C)=O)cc2)cc1CN(C(=O)c1sc2ccccc2c1Cl)[C@H]1CC[C@@H](NC)CC1` [Compound 311, 3-Chloro-benzo[b]thiophene-2-carboxylic acid (4′-acetyl-4-ethoxy-biphenyl-3-ylmethyl)-(4-methylamino-cyclohexyl)-amide hydrochloride], the results for the EC50 in assay [1], in assay [2] and in assay [3] were under 50 nM, 50 to 250 nM and under 50 nM, respectively.

For the compound `CN[C@H]1CC[C@@H](N(Cc2cc(-c3ccc(N(C)C=O)cc3)ccc2OC)C(=O)c2sc3ccccc3c2Cl)CC1` [Compound 315, 3-Chloro-benzo[b]thiophene-2-carboxylic acid [4′-(formyl-methyl-amino)-4-methoxy-biphenyl-3-ylmethyl]-(4-methylamino-cyclohexyl)-amide trifluoroacetate], the EC50 was under 50 nM in assay [1], 250 to 1000 nM in assay [2] and 50 to 250 nM in assay [3].

For `CCOc1ccc(-c2cncnc2)cc1CN(C(=O)c1sc2ccccc2c1Cl)[C@H]1CC[C@@H](NC)CC1` [Compound 326, 3-Chloro-benzo[b]thiophene-2-carboxylic acid (2-ethoxy-5-pyrimidin-5-yl-benzyl)-(4-methylamino-cyclohexyl)-amide dihydrochloride], the concentration giving a half-maximal response (EC50) was 50 to 250 nM in assay [1], 50 to 250 nM in assay [2] and under 50 nM in assay [3].

With `CN[C@H]1CC[C@@H](N(Cc2cc(-c3ccc(N(C)C=O)cc3)ccc2OC)C(=O)c2sc3cccc(F)c3c2Cl)CC1` [Compound 347, 3-Chloro-4-fluoro-benzo[b]thiophene-2-carboxylic acid [4′-(formyl-methyl-amino)-4-methoxy-biphenyl-3-ylmethyl]-(4-methylamino-cyclohexyl)-amide trifluoroacetate], the EC50 in assay [1], in assay [2] and in assay [3] was under 50 nM each time.

Consider `CNC(=O)c1cc(-c2ccc(OC)c(CN(C(=O)c3sc4c(F)ccc(F)c4c3Cl)[C@H]3CC[C@@H](NC)CC3)c2)ccn1` [356 (R16)], for which the EC50 in assay [1], in assay [2] and in assay [3] was under 50 nM in each case.

Consider `CCOc1ccc(-c2ccc(C(=O)C(F)(F)F)cc2)cc1CN(C(=O)c1sc2ccccc2c1Cl)[C@H]1CC[C@@H](NC)CC1` [Compound 310, 3-Chloro-benzo[b]thiophene-2-carboxylic acid [4-ethoxy-4′-(2,2,2-trifluoro-acetyl)-biphenyl-3-ylmethyl]-(4-methylamino-cyclohexyl)-amide hydrochloride], for which the EC50 in assay [1], in assay [2] and in assay [3] was under 50 nM each time.

With `CN[C@H]1CC[C@H](N(Cc2cc(-c3ccc(C(=O)C(F)(F)F)cc3)ccc2F)C(=O)c2sc3ccccc3c2Cl)CC1` [Compound 424, 3-Chloro-benzo[b]thiophene-2-carboxylic acid [4-fluoro-4′-(2,2,2-trifluoro-acetyl)-biphenyl-3-ylmethyl]-(4-methylamino-cyclohexyl)-amide trifluoroacetate], the half-maximal effective concentration (EC50) in assay [1] is under 50 nM; in assay [2] it was 250 to 1000 nM; in assay [3] it was under 50 nM.

Take `CNC1CCC(N(Cc2cc(-c3ccc(N)nc3C)ccc2OC)C(=O)c2sc3ccccc3c2Cl)CC1` (stereo not drawn) [Compound 398, 3-Chloro-benzo[b]thiophene-2-carboxylic acid [5-(6-amino-2-methyl-pyridin-3-yl)-2-methoxy-benzyl]-(4-methylamino-cyclohexyl)-amide dihydrochloride]: the EC50 in assay [1] lay in the range of 1000 to 2500 nM; in assay [2] it was 1000 to 2500 nM; in assay [3], 250 to 1000 nM.

(Values after patent US20080182859A1 (Curis, Inc., priority 2006, published 2008).)
